The nature of this data set: Aqueous solubility of co-crystals (saturated solutions in water, liquid chromatography). As to conditions: thermodynamic from solid, time point not stated, read-out: solubility for the Free Base (comparison). Format: physicochemical. On the procedure: The aqueous solubility of the co-crystals is determined by creating saturated solutions containing individual co-crystals in water. The saturated solutions are shaken for 24 hours at room temperature. Samples are taken at two timepoints (2 hours and 24 hours) and are filtered and diluted (acetonitrile/water 1:1) before measurement with liquid chromatography.

Values after ≈ are worked out from the molar mass of the structure shown.

Turning to `CN1C(=O)c2c(nn(Cc3ccc(-c4cccc(F)n4)cc3)c2Nc2ccccc2)N2C1=N[C@@H]1CCC[C@@H]12` [Free Base, (6aR,9aS)-5,6a,7,8,9,9a-hexahydro-5-methyl-3-(phenylamino)-2-((4-(6-fluoropyridin-2-yl)phenyl)methyl)-cyclopent[4,5]imidazo[1,2-a]pyrazolo[4,3-e]pyrimidin-4(2H)-one], the solubility (commonly the dissolved amount per volume that the medium holds) is 1 µg/mL (≈ 1.97 µM).

For the origin of these results see patent US20240383909A1, “CO-CRYSTALS” (INTRA-CELLULAR THERAPIES, INC., priority 2021, published 2024).
